Assay [1] concerns Felis catus. Nature of the assay: Antihypertensive activity in cat assessed as change in blood pressure at 2.5 mg/kg measured within 5 mins. Type of assay: functional.
For assay [2], the system named is Felis catus. Nature of the assay: Antihypertensive activity in cat assessed as change in blood pressure at 2.5 mg/kg measured after 5 mins. Type of assay: functional.
The test system of assay [3] is Felis catus. Nature of the assay: Antihypertensive activity in cat assessed as change in heart rate at 2.5 mg/kg measured within 5 mins. Format: functional.
In assay [4] the test system is Felis catus. In words: Antihypertensive activity in cat assessed as change in heart rate at 2.5 mg/kg measured after 5 mins. Type of assay: functional.
The test system of assay [5] is Felis catus. Nature of the assay: Hypotensive activity in cat assessed as decrease carotid occlusion response at 2.5 mg/kg. Format: functional, organism-based. More on the design: dose 2.5 mg/kg.
Assay [6] deals with Felis catus. In words: Hypotensive activity in cat assessed as decrease norepinephrine response at 2.5 mg/kg. Format: functional, organism-based. Further details: dose 2.5 mg/kg.

Molecules are shown by their SMILES. The source made the active and inactive calls. No cut-off for these calls is given here.

Turning to `CN(C)c1ccc(/C=N/NC(=O)Cn2c(-c3ccccc3O)nc(-c3ccccc3)c2-c2ccccc2)cc1`, the Activity is given as -60 mmHg in assay [1], -35 mmHg in assay [2], -8 bpm in assay [3] and -11 bpm in assay [4]. Besides, the outcome in assay [5] was Active. In addition, the result in assay [6] was inactive.
Turning to `NNC(=O)Cn1c(-c2ccccc2O)nc(-c2ccccc2)c1-c1ccccc1`, the Activity in assay [1] is -22 mmHg; in assay [2] it was -17 mmHg; in assay [3], -21 bpm. The outcome in assay [4], in assay [5] and in assay [6] was inactive.
`COc1ccc(-c2nnc(Cn3c(-c4ccc(O)c(OC)c4)nc(-c4ccccc4)c3-c3ccccc3)o2)cc1`: the Activity in assay [1] and in assay [2] was -10 mmHg each time. For the same molecule, in assay [5], the result was Active. Moreover, in assay [6], the outcome was inactive.
Regarding `COc1ccc(-c2nnc(Cn3c(-c4ccccc4)nc(-c4ccccc4)c3-c3ccccc3)o2)cc1`, the results for the Activity in assay [1] and in assay [2] were -50 mmHg and -10 mmHg, respectively. Moreover, the result in assay [5] was Active. In addition, the result in assay [6] was inactive.
The corresponding values for `COc1ccc(/C=N/NC(=O)Cn2c(-c3ccc(OC)cc3)nc(-c3ccccc3)c2-c2ccccc2)cc1` are -5 mmHg, -5 mmHg, “Active” and “inactive”.
With `COc1cc(/C=N/NC(=O)Cn2c(-c3ccc(N(C)C)cc3)nc(-c3ccccc3)c2-c2ccccc2)ccc1O`, the Activity in assay [1] was -80 mmHg; in assay [2] it was -55 mmHg; in assay [3] it was -14 bpm; in assay [4], -20 bpm. Moreover, the outcome in assay [5] was Active. In addition, in assay [6], the result was inactive.
`COc1ccc(/C=N/NC(=O)Cn2c(-c3ccc(N(C)C)cc3)nc(-c3ccccc3)c2-c2ccccc2)cc1`: the Activity in assay [1] is listed as -45 mmHg; in assay [2], -50 mmHg; in assay [3] it was -12 bpm; in assay [4] it was -14 bpm. For the same molecule, the outcome in assay [5] was Active. In addition, in assay [6], the outcome was inactive.
Regarding `NNC(=O)Cn1c(-c2ccccc2)nc(-c2ccccc2)c1-c1ccccc1`, the Activity in assay [1] is listed as -25 mmHg; in assay [2], -15 mmHg; in assay [3], -6 bpm; in assay [4], -6 bpm. Further, the outcome in assay [5] and in assay [6] was inactive.
For `COc1ccc(/C=N/NC(=O)Cn2c(-c3ccc(O)c(OC)c3)nc(-c3ccccc3)c2-c2ccccc2)cc1`, the Activity in assay [1] is recorded as -10 mmHg. Also, in assay [5], the result was Active. Moreover, in assay [6], the outcome was inactive.
For `CN(C)c1ccc(-c2nc(-c3ccccc3)c(-c3ccccc3)n2CC(=O)NN)cc1`, the Activity was -30 mmHg in assay [1], -30 mmHg in assay [2], -18 bpm in assay [3] and -27 bpm in assay [4]. In addition, the outcome in assay [5] was Active. Further, the result in assay [6] was inactive.
As for `COc1ccc(-c2nc(-c3ccccc3)c(-c3ccccc3)n2CC(=O)NN)cc1`, the Activity is -20 mmHg in assay [1], -5 mmHg in assay [2], -16 bpm in assay [3] and -21 bpm in assay [4]. Further, the outcome in assay [5] and in assay [6] was inactive.
Regarding `CN(C)c1ccc(-c2nnc(Cn3c(-c4ccccc4O)nc(-c4ccccc4)c3-c3ccccc3)o2)cc1`, the Activity in assay [1] is reported as -15 mmHg; in assay [2], 5 mmHg; in assay [3], -5 bpm; in assay [4], -5 bpm. Further, the outcome in assay [5] and in assay [6] was inactive.
Take `COc1ccc(-c2nnc(Cn3c(-c4ccc(N(C)C)cc4)nc(-c4ccccc4)c3-c3ccccc3)o2)cc1`: the Activity in assay [1] was -15 mmHg; in assay [2], -10 mmHg; in assay [3] it was -6 bpm; in assay [4], -10 bpm. Moreover, the result in assay [5] and in assay [6] was Active.
For `COc1cc(-c2nnc(Cn3c(-c4ccc(N(C)C)cc4)nc(-c4ccccc4)c3-c3ccccc3)o2)ccc1O`, the Activity in assay [1] is -50 mmHg; in assay [2], -20 mmHg; in assay [3], -6 bpm; in assay [4] it was -14 bpm. Also, the result in assay [5] was Active. For the same molecule, the outcome in assay [6] was inactive.
As to `COc1ccc(/C=N/NC(=O)Cn2c(-c3ccccc3)nc(-c3ccccc3)c2-c2ccccc2)cc1`, the results for the Activity in assay [1], in assay [3] and in assay [4] were -15 mmHg, -8 bpm and -11 bpm, respectively. In addition, the outcome in assay [5] and in assay [6] was inactive.
For `COc1ccc(-c2nnc(Cn3c(-c4ccc(OC)cc4)nc(-c4ccccc4)c3-c3ccccc3)o2)cc1`, the figures for the Activity in assay [1] and in assay [2] were -10 mmHg and 10 mmHg, respectively. The outcome in assay [5] and in assay [6] was Active.
As for `COc1cc(-c2nc(-c3ccccc3)c(-c3ccccc3)n2CC(=O)NN)ccc1O`, the Activity is -30 mmHg in assay [1] and -20 mmHg in assay [2]. The outcome in assay [4] and in assay [6] was inactive. The outcome in assay [5] was Active.

The values are drawn from ChEMBL document CHEMBL1667808, “Substituted imidazole derivatives as novel cardiovascular agents” (Bioorg Med Chem Lett, 2011).
